Results published in US20060194969A1, “4-Substituted benzimidazoles and their uses as inhibitors of gastric secretion” (priority 2002, published 2006).

Legend:
[1] = tested on: pentagastrin-stimulated acid secretion of the perfused rat stomach; test: Secretion-inhibiting action on the perfused rat stomach (pentagastrin-stimulated acid secretion, intraduodenal administration in vivo); conditions: dose 1 μmol/kg i.d., anesthetized female CD rat; for inhibition in vivo at 1 µmol/kg: intraduodenal
From the text: Testing of the Secretion-Inhibiting Action on the Perfused Rat Stomach
In Table A which follows, the influence of the compounds according to the invention on the pentagastrin-stimulated acid secretion of the perfused rat stomach after intraduodenal administration in vivo is shown.
The abdomen of anesthetized rats (CD rat, female, 200-250 g; 1.5 g/kg i.m. urethane) was opened after tracheotomy by a median upper abdominal incision and a PVC catheter was fixed transorally in the esophagus and another via the pylorus such that the ends of the tubes just projected into the gastric lumen. The catheter leading form the pylorus led outward into the right abdominal wall through a side opening.
After thorough rinsing (about 50-100 ml), warm (37° C.) physiological NaCl solution was continuously passed through the stomach (0.5 ml/min, pH 6.8-6.9; Braun-Unita I). The pH (pH meter 632, glass electrode EA 147; φ=5 mm, Metrohm) and, by titration with a freshly prepared 0.01 N NaOH solution to pH 7 (Dosimat 665 Metrohm), the secreted HCl were determined in the effluent in each case collected at an interval of 15 minutes.
The gastric secretion was stimulated by continuous infusion of 1 μg/kg (=1.65 ml/h) of i.v. pentagastrin (left femoral vein) about 30 min after the end of the operation (i.e. after determination of 2 preliminary fractions). The substances to be tested were administered intraduodenally in a 2.5 ml/kg liquid volume 60 min after the start of the continuous pentagastrin infusion.
The body temperature of the animals was kept at a constant 37.8-38° C. by infrared irradiation and heat pads (automatic, stepless control by means of a rectal temperature sensor).

| SMILES | melting point [°C] | inhibition in vivo at 1 µmol/kg [1] [%] | Inhibition of acid secretion (%) [1] [%] |
| --- | --- | --- | --- |
| Cc1nc2c(O[C@@H]3c4ccc(Cl)cc4C[C@H]3O)cc(C(=O)N(C)C)cc2n1C.O=C(O)C(=O)O (relative stereo) [Example 19, 4-(trans-5-Chloro-2,3-dihydro-2-hydroxy-1-indenyloxy)-6-(N,N-dimethylaminocarbonyl)-1,2-dimethyl-1H-benzimidazole Oxalate] | 158 to 159 | > 50 |  |
| Cc1nc2c(O[C@H]3c4ccccc4C[C@@H]3O)cc(C(=O)N(C)C)cc2n1C.O=C(O)C(=O)O [Example 11, 4-[(1S,2S)-2,3-Dihydro-2-hydroxy-1-indenyloxy]-6-(N,N-dimethylaminocarbonyl)-1,2-dimethyl-1H-benzimidazole Oxalate] | 126 to 127 | > 50 |  |
| CCc1cccc(C)c1COc1cc(C(=O)N(C)C)cc2c1nc(C)n2C [Example 8, 6-(N,N-Dimethylaminocarbonyl)-4-(2-ethyl-6-methyl-benzyloxy)-1,2-dimethyl-1H-benzimidazole] | 161 to 162 | > 50 |  |
| CCc1cccc(C)c1CNc1cc(C(=O)N(C)C)cc2c1nc(C)n2C [Example 44] |  |  | >50 |
| Cc1ccc(C)c2c1C[C@@H](O)[C@@H]2Oc1cc(C(=O)N(C)C)cc2c1nc(C)n2C (relative stereo) [Example 22, 4-(trans-2,3-Dihydro-2-hydroxy-4,7-dimethyl-1-indenyloxy)-6-(N,N-dimethylaminocarbonyl)-1,2-dimethyl-1H-benzimidazole] | 134 |  |  |
| COC(=O)c1cc(OCc2c(C)cccc2C)c2nc(C)n(C)c2c1 [Example 3, Methyl 4-(2,6-dimethyl-benzyloxy)-1,2-dimethyl-1H-benzimidazole-6-carboxylate] | 165 to 169 |  |  |
| CCOC(=O)c1cc(NCc2c(C)cccc2C)c2nc(COC)n(C)c2c1 [Example 30, Ethyl 4-(2,6-dimethyl-benzylamino)-2-methoxymethyl-1-methyl-1H-benzimidazole-6-carboxylate] | 134 to 135 |  |  |
| COCC(=O)O[C@@H]1Cc2ccccc2[C@H]1Oc1cc(C(=O)N(C)C)cc2c1nc(C)n2C (relative stereo) [Example 13] |  |  | >50 |
| CO[C@@H]1Cc2ccccc2[C@H]1Oc1cc(C(=O)N(C)C)cc2c1nc(C)n2C.O=C(O)C(=O)O (relative stereo) [Example 12, 4-(trans-2,3-Dihydro-2-methoxy-1-indenyloxy)-6-(N,N-dimethylaminocarbonyl)-1,2-dimethyl-1H-benzimidazole Oxalate] | 126 to 127 |  |  |
| CCN(CCOC)C(=O)c1cc(O[C@@H]2c3ccccc3C[C@H]2O)c2nc(C)n(C)c2c1.O=C(O)C(=O)O (relative stereo) [Example 24, 4-(trans-2,3-Dihydro-2-hydroxy-1-indenyloxy)-6-[N-(2-methoxyethyl)-N-ethyl-amino-carbonyl]-1,2-dimethyl-1H-benzimidazole Oxalate] | 141 |  |  |
| Cc1cccc(C)c1COc1cc(C(=O)O)cc2c1nc(C)n2C [Example 4, 4-(2,6-Dimethyl-benzyloxy)-1,2-dimethyl-1H-benzimidazole-6-carboxylic Acid] | 285 to 286 |  |  |
| CCOC(=O)c1cc(NCc2c(C)cccc2C)c2nc(C)n(C)c2c1 [Example 28, Ethyl 4-(2,6-dimethyl-benzylamino)-1,2-dimethyl-1H-benzimidazole-6-carboxylate] | 190 |  |  |
| CCc1cccc(C)c1CNc1cc(C(=O)O)cc2c1nc(COC)n2C [Example 33, 4-(2-Ethyl-6-methyl-benzylamino)-2-methoxymethyl-1-methyl-1H-benzimidazole-6-carboxylic Acid] | 275 to 278 |  |  |

The next lines start with results.

| melting point [°C] | SMILES | inhibition in vivo at 1 µmol/kg [1] [%] | Inhibition of acid secretion (%) [1] [%] |
| --- | --- | --- | --- |
| 154 | CCc1cccc(C)c1CNc1cc(C(=O)N(C)C)cc2c1nc(COC)n2C [Example 42, 6-(N,N-Dimethylaminocarbonyl)-4-(2-ethyl-6-methyl-benzylamino)-2-methoxymethyl-1-methyl-1H-benzimidazole] | > 50 |  |
| 156 to 157 | COCc1nc2c(NCc3c(C)cccc3C)cc(C(=O)N(C)C)cc2n1C [Example 43, 6-(N,N-Dimethylaminocarbonyl)-4-(2,6-dimethyl-benzylamino)-2-methoxymethyl-1-methyl-1H-benzimidazole] | > 50 |  |
| 240 to 241 | CCc1cccc(C)c1CNc1cc(C(N)=O)cc2c1nc(C)n2C [Example 38, 4-(2-Ethyl-6-methyl-benzylamino)-1,2-dimethyl-1H-benzimidazole-6-carboxamide] | > 50 |  |
| 228 to 230 | CCc1cccc(C)c1CNc1cc(C(=O)N(C)C)cc2[nH]c(C)nc12 [Example 49, 6-(N,N-Dimethylaminocarbonyl)-4-(2-ethyl-6-methyl-benzylamino)-2-methyl-1H-benzimidazole] | > 50 |  |
| 200 to 201 | CCc1cccc(C)c1CNc1cc(C(=O)NCCO)cc2c1nc(C)n2C [Example 35, 4-(2-Ethyl-6-methyl-benzylamino)-6-(2-hydroxyethyl-aminocarbonyl)-1,2-dimethyl-1H-benzimidazole] | > 50 |  |
| 118 to 119 | Cc1cccc(C)c1CNc1cc(C2=NCCN2C)cc2c1nc(C)n2C [Example 73, 6-(4,5-Dihydro-1-methyl-1H-imidazol-2-yl)-4-(2,6-dimethyl-benzylamino)-1,2-dimethyl-1H-benzimidazole] |  |  |
| 155 to 156 | CCOC(=O)c1cc(NCc2c(C)cccc2C)c2nc(C)n(COCc3ccccc3)c2c1 [Example 64, Ethyl1-benzyloxymethyl-4-(2,6-dimethyl-benzylamino)-2-methyl-1H-benzimidazole-6-carboxylate] |  |  |
| 203 | Cc1nc2c(NCc3c(C)cccc3C)cc(C(=O)N(C)C)cc2[nH]1 [Example 67, 6-(N,N-Dimethylaminocarbonyl)-4-(2,6-dimethyl-benzylamino)-2-methyl-1H-benzimidazole] |  |  |
| 158 to 159 | Cc1ccccc1CNc1cc(C(=O)N(C)C)cc2c1nc(C)n2C [Example 61, 6-(N,N-Dimethylaminocarbonyl)-1,2-dimethyl-4-(2-methyl-benzylamino)-1H-benzimidazole] |  |  |
| 138 to 141 | CCc1cccc(C)c1CNc1cc(C(=O)N(C)C)cc2c1nc(CO)n2C [Example 83, 6-(N,N-Dimethylaminocarbonyl)-4-(2-ethyl-6-methyl-benzylamino)-2-hydroxymethyl-1-methyl-1H-benzimidazole] |  |  |
| 163 to 164 | Cc1coc(C)c1N(C)c1cc(C(=O)N(C)C)cc2c1nc(C)n2C [Example 62, 6-(N,N-Dimethylaminocarbonyl)-4-(2,4-dimethyl-furan-3-yl-methylamino)-1,2-dimethyl-1H-benzimidazole] |  |  |
| 277 to 278 | Cc1cccc(C)c1CNc1cc(C(=O)NN)cc2c1nc(C)n2C [Example 57, 4-(2,6-Dimethyl-benzylamino)-1,2-dimethyl-1H-benzimidazole-6-carboxylic acid hydrazide] |  |  |
| 55 to 56 | Cc1cccc(C)c1CNc1cc(C(=O)N(C)C)cc2c1nc(C)n2COCc1ccccc1 [Example 66, 1-Benzyloxymethyl-6-(N,N-dimethylaminocarbonyl)-4-(2,6-dimethyl-benzylamino)-2-methyl-1H-benzimidazole] |  |  |
